Data from patent publication US11412737B2, “Mixtures of beflubutamid or optically enriched forms thereof with a second herbicide” (FMC Corporation, priority 2016, dated 2022).

Key:
[1] = test system: Green foxtail (SETVI); test: post-emergence test, weed control; assay type: in vivo, Setaria viridis; details: post-emergent, 28 DAT; BFL at 187.5 g, PTX at 890 g, combination of both
Description: (§1) Test compositions containing the test compounds were diluted with water to provide the appropriate test rate concentrations.
For post-emergence testing, seeds of each species for each rate of application of each herbicide solution were planted in 7.5 cm×7.5 cm plastic pots filled with potting soil. The seeds were germinated and the resulting plants were allowed to grow in a greenhouse until they reached a growth stage, such as height, suitable for testing. Treatments were applied using compressed air in a track spray chamber at 30 gallons/acre (280 L/ha) using a TeeJet 8001E nozzle at 40 psi (2.76 bars). Pots of post-emergent treated plants were returned to the greenhouse and not watered for 24 hours after treatment. Thereafter they were regularly watered and fertilized for the duration of the test.
(§2) The control of weeds was evaluated in each experimental test at 21 for wheat and 28 days after treatment (DAT) for all species. Data were analyzed using Minitab software at 95% confidence interval. The results, shown as an average of the replications, were compared with results observed in untreated control flats in the same tests. Percent control was determined by a method similar to the 0 to 100 rating system disclosed in “Research Methods in Weed Science,” 2nd ed., B. Truelove, Ed.; Southern Weed Science Society; Auburn University, Auburn, Ala., 1977. The rating system is as follows in Table 1.

[2] = test system: Jimsonweed (DATST); test: pre-emergence test, weed control; assay type: in vivo, Datura stramonium; details: pre-emergent, 28 DAT; BFL at 62.5 g, PTX at 90 g, combination of both
Description: as §1
(§3) For pre-emergence testing, four disposable fiber flats (6 inch by 10 inch) for each rate of application of each herbicide solution were filled with top soil, to which seeds of each species were planted in furrows made by a template pressed on the top of the soil. The furrows were covered with soil after planting the seed and were watered well before application of the test compounds.
(§4) Fiber flats designated for treatment were placed in a spray chamber having a static platform and a movable sprayer and the height of the spray nozzle was 10.5 inches above the soil level. Once the sprayer was calibrated using water for spray volume of 30 gallons per acre, flats were sprayed with sprayer at a speed to receive a coverage equivalent of 30 gallons per acre. The application rates are those shown in the Tables below for the individual herbicidal solutions and the herbicide compositions of this invention. The pre-emergence flats were immediately placed in the greenhouse and watered lightly after treatment. Thereafter they were regularly watered and fertilized for the duration of the test.
as §2

[3] = test system: Common lambsquarters (CHEAL); test: pre-emergence test, weed control; assay type: in vivo, Chenopodium album; details: pre-emergent, 28 DAT, (+)-BFL >95% e.e.; rate g ai/ha by row: r6 62.5, r7 125, r8 62.5, r9 125, r10 222, r11 445, r12 22.5, r13 45, r14 62.5+62.5, r15 125+62.5, r16 62.5+125, r17 125+125, r18 62.5+222, r19 125+222, r20 62.5+445, r21 125+445, r22 62.5+22.5, r23 125+22.5, r24 62.5+45, r25 125+45
Description: as §1, §3, §4, §2

[4] = test system: Green foxtail (SETVI); test: pre-emergence test, weed control; assay type: in vivo, Setaria viridis; details: pre-emergent, 28 DAT
Description: as §1, §3, §4, §2

[5] = test system: Wild oat (AVEFA); test: pre-emergence test, weed control; assay type: in vivo, Avena fatua; details: pre-emergent; for percentage of weed control, AVEFA: 28 DAT; for percentage of weed control, Wild Oat AVEFA: 21 DAT, rate g ai/ha by row: r4 94, r5 125, r6 250, r7 125, r8 250, r9 500, r10 94+125, r11 125+125, r12 94+250, r13 125+250, r14 94+500, r15 125+500
Description: as §1, §3, §4, §2

[6] = test system: Yellow foxtail (SETLU); test: pre-emergence test, weed control; assay type: in vivo; details: pre-emergent, 28 DAT
Description: as §1, §3, §4, §2

[7] = test system: Blackgrass (ALOMY); test: pre-emergence test, weed control; assay type: in vivo; details: pre-emergent, 28 DAT
Description: as §1, §3, §4, §2

[8] = test system: Palmer amaranth (AMAPA); test: pre-emergence test, weed control; assay type: in vivo, Amaranthus palmeri; details: pre-emergent, 28 DAT, (−)-BFL >95% e.e., rate g ai/ha by row: r6 62, r7 125, r8 125, r9 250, r10 445, r11 890, r12 45, r13 90, r14 62+125, r15 125+125, r16 62+250, r17 125+250, r18 62+445, r19 125+445, r20 62+890, r21 125+890, r22 62+45, r23 125+45, r24 62+90, r25 125+90
Description: as §1, §3, §4, §2

[9] = test system: crop and weed species; test: pre-emergence test, several crop and weed species together; assay type: in vivo; details: pre-emergent, 28 DAT (Tables 16 and 17), >95% e.e.
Description: as §1, §3
Fiber flats designated for treatment were placed in a spray chamber having a static platform and a movable sprayer and the height of the spray nozzle was 10.5 inches above the soil level. Once the sprayer was calibrated using water for spray volume of 30 gallons per acre, flats were sprayed with sprayer at a speed to receive a coverage equivalent of 30 gallons per acre. […]
The control of weeds was evaluated in each experimental test at 21 for wheat and 28 days after treatment (DAT) for all species. Data were analyzed using Minitab software at 95% confidence interval. […] Percent control was determined by a method similar to the 0 to 100 rating system disclosed in “Research Methods in Weed Science,” 2nd ed., B. Truelove, Ed.; Southern Weed Science Society; Auburn University, Auburn, Ala., 1977. […]

[10] = test system: Velvetleaf (ABUTH); test: pre-emergence test, weed control; assay type: in vivo, Abutilon theophrasti; details: pre-emergent, 21 DAT, rate g ai/ha by row: r4 94, r5 125, r6 250, r7 125, r8 250, r9 500, r10 94+125, r11 125+125, r12 94+250, r13 125+250, r14 94+500, r15 125+500
Description: as §1, §3, §4, §2

[11] = test system: velvetleaf (IPOHE); test: pre-emergence test, weed control; assay type: in vivo; details: pre-emergent, 21 DAT, rate g ai/ha by row: r4 94, r5 125, r6 250, r7 125, r8 250, r9 500, r10 94+125, r11 125+125, r12 94+250, r13 125+250, r14 94+500, r15 125+500
Description: as §1, §3, §4, §2

[12] = test system: Large crabgrass (DIGSA); test: pre-emergence test, weed control; assay type: in vivo; details: pre-emergent, 28 DAT, rate g ai/ha by row: r4 94, r5 50, r6 100, r7 52.5, r8 70, r9 94+52.5, r10 94+70, r11 50+52.5, r12 50+70, r13 100+52.5, r14 100+70
Description: as §1, §3, §4, §2

[13] = (+)-BFL >95% e.e., rate g ai/ha by row: r6 62.5, r7 125, r8 62.5, r9 125, r10 222, r11 445, r12 22.5, r13 45, r14 62.5+62.5, r15 125+62.5, r16 62.5+125, r17 125+125, r18 62.5+222, r19 125+222, r20 62.5+445, r21 125+445, r22 62.5+22.5, r23 125+22.5, r24 62.5+45, r25 125+45
[14] = (−)-BFL >95% e.e., rate g ai/ha by row: r6 62, r7 125, r8 125, r9 250, r10 445, r11 890, r12 45, r13 90, r14 62+125, r15 125+125, r16 62+250, r17 125+250, r18 62+445, r19 125+445, r20 62+890, r21 125+890, r22 62+45, r23 125+45, r24 62+90, r25 125+90, 445 g ai/ha
[15] = (−)-BFL >95% e.e., rate g ai/ha by row: r6 62, r7 125, r8 125, r9 250, r10 445, r11 890, r12 45, r13 90, r14 62+125, r15 125+125, r16 62+250, r17 125+250, r18 62+445, r19 125+445, r20 62+890, r21 125+890, r22 62+45, r23 125+45, r24 62+90, r25 125+90, 890 g ai/ha
[16] = (+)-BFL >95% e.e., rate g ai/ha by row: r6 62.5, r7 125, r8 62.5, r9 125, r10 222, r11 445, r12 22.5, r13 45, r14 62.5+62.5, r15 125+62.5, r16 62.5+125, r17 125+125, r18 62.5+222, r19 125+222, r20 62.5+445, r21 125+445, r22 62.5+22.5, r23 125+22.5, r24 62.5+45, r25 125+45, 222 g ai/ha
[17] = (+)-BFL >95% e.e., rate g ai/ha by row: r6 62.5, r7 125, r8 62.5, r9 125, r10 222, r11 445, r12 22.5, r13 45, r14 62.5+62.5, r15 125+62.5, r16 62.5+125, r17 125+125, r18 62.5+222, r19 125+222, r20 62.5+445, r21 125+445, r22 62.5+22.5, r23 125+22.5, r24 62.5+45, r25 125+45, 445 g ai/ha
[18] = (−)-BFL >95% e.e., rate g ai/ha by row: r6 62, r7 125, r8 125, r9 250, r10 445, r11 890, r12 45, r13 90, r14 62+125, r15 125+125, r16 62+250, r17 125+250, r18 62+445, r19 125+445, r20 62+890, r21 125+890, r22 62+45, r23 125+45, r24 62+90, r25 125+90, 62 g ai/ha
[19] = (−)-BFL >95% e.e., rate g ai/ha by row: r6 62, r7 125, r8 125, r9 250, r10 445, r11 890, r12 45, r13 90, r14 62+125, r15 125+125, r16 62+250, r17 125+250, r18 62+445, r19 125+445, r20 62+890, r21 125+890, r22 62+45, r23 125+45, r24 62+90, r25 125+90, 125 g ai/ha

Compound: CCOCCN(C(=O)CCl)C(=C(C)C)c1ccccc1 [PTX, Pethoxamid]
- control of green foxtail [1]: 4%
- control of jimsonweed [2]: 4%
- percentage of weed control, CHEAL [3]: 100%
- percentage of weed control, SETVI [4, 13]: 99%
- percentage of weed control, SETVI [4, 14]: 98%
- percentage of weed control, SETVI [4, 15]: 100%
- percentage of weed control, AVEFA [5, 16]: 84%
- percentage of weed control, AVEFA [5, 17]: 92%
- percentage of weed control, AVEFA [5, 14]: 89%
- percentage of weed control, AVEFA [5, 15]: 92%
- percentage of weed control, SETLU [6, 13]: 99%
- percentage of weed control, SETLU [6, 14]: 99%
- percentage of weed control, SETLU [6, 15]: 100%
- percentage of weed control, ALOMY [7, 16]: 70%
- percentage of weed control, ALOMY [7, 17]: 96%
- percentage of weed control, ALOMY [7, 14]: 59%
- percentage of weed control, ALOMY [7, 15]: 83%
- percentage of weed control, AMAPA ([8]; 445 g ai/ha): 98%
- percentage of weed control, AMAPA ([8]; 890 g ai/ha): 100%

Compound: CC[C@H](Oc1ccc(F)c(C(F)(F)F)c1)C(=O)NCc1ccccc1 [(−)-BFL, (2S)-2-[4-fluoro-3-(trifluoromethyl)phenoxy]-N-(phenylmethyl)butanamide]
- percentage of weed control, SETVI [4, 18]: 80%
- percentage of weed control, SETVI [4, 19]: 97%
- percentage of weed control, AVEFA [5, 18]: 7%
- percentage of weed control, AVEFA [5, 19]: 11%
- percentage of weed control, SETLU [6, 18]: 86%
- percentage of weed control, SETLU [6, 19]: 100%
- percentage of weed control, ALOMY [7, 18]: 19%
- percentage of weed control, ALOMY [7, 19]: 32%
- herbicidal activity of the enantiomers compared [9]: the more active enantiomer
- percentage of weed control, AMAPA ([8]; 62 g ai/ha): 70%
- percentage of weed control, AMAPA ([8]; 125 g ai/ha): 97%

Compound: CCOCN(C(=O)CCl)c1c(C)cccc1CC [Acetochlor]
- percentage of weed control, Velvetleaf ABUTH ([10]; 125 g ai/ha): 10%
- percentage of weed control, Velvetleaf ABUTH ([10]; 250 g ai/ha): 11%
- percentage of weed control, Wild Oat AVEFA ([5]; 125 g ai/ha): 13%
- percentage of weed control, Wild Oat AVEFA ([5]; 250 g ai/ha): 11%
- percentage of weed control, Morningglory IPOHE ([11]; 125 g ai/ha): 5%
- percentage of weed control, Morningglory IPOHE ([11]; 250 g ai/ha): 6%
- percentage of weed control, Morningglory IPOHE ([11]; 500 g ai/ha): 8%

Compound: O=C(Nc1ccc(F)cc1F)c1cccnc1Oc1cccc(C(F)(F)F)c1 [Diflufenican]
- percentage of weed control, DIGSA ([12]; 50 g ai/ha): 18%
- percentage of weed control, DIGSA ([12]; 100 g ai/ha): 30%
